Measurements from the supplement of paper PMC10331698.
± gives the standard deviation of the averaged measurements.

Assays:
Experiment in all cases: level (log10 ratio to DMSO vehicle control); higher = higher biomarker level / cell amount than vehicle control
[1] = compound: O=C(O)C(F)(OC(F)(F)C(F)(F)C(F)(F)F)C(F)(F)F [Ammonium perfluoro-2-methyl-3-oxahexanoate] (in Water)
Procedure: (§1)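 BioMAP Diversity Plus panel of 12 human primary cell co-culture systems (3C, 4H, LPS, SAg, BT, BF4T, BE3C, CASM3C, HDF3CGF, KF3CT, MyoF, Mphg). Compounds were added 1 h before stimulation and left for 24 h (MyoF 48 h; BT 72 h for soluble read-outs or 6 d for IgG). Biomarkers were read by ELISA, cytotoxicity by SRB, PBMC viability and proliferation by Alamar Blue. Each well value was divided by the mean of 8 DMSO control wells on the same plate and log10 transformed; duplicate blinded samples were tested at 4 concentrations.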

[2] = compound: O=S(=O)(O)C(F)(F)C(F)(F)OC(F)(F)C(F)(F)F [Perfluoro(2-ethoxyethane)sulfonic acid] (in DMSO)
Procedure: as §1

[3] = compound: O=C(O)C=C(C(F)(F)F)C(F)(F)F [3,3-Bis(trifluoromethyl)-2-propenoic acid] (in DMSO)
Procedure: as §1

[4] = compound: O=C(O)C(F)(F)C(F)(F)C(F)(F)OC(F)(F)F [Perfluoro(4-methoxybutanoic) acid] (in DMSO)
Procedure: as §1

Perfluoroundecanoic acid = compound: O=C(O)C(F)(F)C(F)(F)C(F)(F)C(F)(F)C(F)(F)C(F)(F)C(F)(F)C(F)(F)C(F)(F)C(F)(F)F [Perfluoroundecanoic acid] (in DMSO); settings: 6700 nM
Procedure: as §1

[5] = compound: O=S(=O)(O)C(F)(F)C(F)(F)C(F)(F)C(F)(F)C(F)(F)C(F)(F)C(F)(F)F [Perfluoroheptanesulfonic acid] (in DMSO)
Procedure: as §1

[6] = compound: OCC(F)(F)C(F)(F)C(F)(F)C(F)(F)C(F)(F)C(F)(F)CO [1H,1H,8H,8H-Perfluorooctane-1,8-diol] (in DMSO)
Procedure: as §1

Test System | level (log10) ([1]; 6700 nM) | level (log10) ([1]; 20000 nM) | level (log10) ([1]; 60000 nM) | level (log10) ([2]; 6700 nM) | level (log10) ([2]; 20000 nM) | level (log10) ([2]; 60000 nM) | level (log10) ([3]; 6700 nM) | level (log10) ([3]; 20000 nM) | level (log10) ([3]; 60000 nM) | level (log10) ([4]; 6700 nM) | level (log10) ([4]; 20000 nM) | level (log10) ([4]; 60000 nM) | level (log10) (Perfluoroundecanoic acid) | level (log10) ([5]; 1500 nM) | level (log10) ([5]; 4400 nM) | level (log10) ([5]; 13000 nM) | level (log10) ([5]; 40000 nM) | level (log10) ([6]; 6700 nM) | level (log10) ([6]; 20000 nM) | level (log10) ([6]; 60000 nM)
BT:sIL-17F | 0.111 ± 0.016 | 0.116 ± 0.012 | 0.0455 ± 0.012 | -0.0315 ± 0.022 | -0.071 ± 0.031 | -0.0005 ± 0.021 | -0.258 ± 0.031 | -0.426 ± 0.16 | -0.672 ± 0.021 | -0.0085 ± 0.059 | 0.07 ± 0.017 | -0.037 ± 0.073 | -0.0225 ± 0.056 | -0.0155 ± 0.096 | 0.0185 ± 0.025 | 0.0535 ± 0.064 | -0.004 ± 0.067 | -0.0015 ± 0.03 | -0.158 ± 0.12 | -0.208 ± 0.0092
BT:sTNF-alpha | -0.035 ± 0.037 | 0.013 ± 0.034 | 0.0045 ± 0.093 | -0.002 ± 0.037 | -0.012 ± 0.083 | 0.029 ± 0.058 | -0.047 ± 0.034 | -0.184 ± 0.04 | -0.637 ± 0.093 | -0.028 ± 0.0042 | -0.0245 ± 0.046 | 0.0445 ± 0.016 | 0.06 ± 0.02 | -0.022 ± 0.018 | -0.043 ± 0.0042 | -0.048 ± 0.014 | -0.101 ± 0.0099 | -0.057 ± 0.045 | -0.0705 ± 0.036 | -0.097 ± 0.18
LPS:CCL2/MCP-1 | 0.0325 ± 0.033 | -0.017 ± 0.023 | -0.001 ± 0.0014 | 0.012 ± 0.0057 | 0.021 ± 0.0071 | 0.032 ± 0.035 | 0.0015 ± 0.00071 | -0.0145 ± 0.0035 | -0.02 ± 0.03 | 0.004 ± 0.013 | -0.001 ± 0.024 | 0.025 ± 0.058 | 0.0015 ± 0.0078 | 0.0045 ± 0.037 | -0.0455 ± 0.026 | -0.005 ± 0.042 | 0.014 ± 0.1 | -0.004 ± 0.018 | -0.0115 ± 0.018 | -0.0135 ± 0.036
LPS:CD40 | -0.014 ± 0.018 | -0.0145 ± 0.016 | -0.045 ± 0.03 | 0.0515 ± 0.016 | 0.022 ± 0.0028 | 0.047 ± 0.016 | -0.055 ± 0.024 | -0.061 ± 0.047 | -0.184 | -0.0385 ± 0.06 | 0 ± 0.055 | -0.0465 ± 0.094 | -0.019 ± 0.05 | 0.035 ± 0.075 | 0.029 ± 0.096 | 0.0625 ± 0.1 | 0.001 ± 0.14 | -0.031 ± 0.0057 | -0.0375 ± 0.032 | -0.0555 ± 0.049
LPS:CD62E/E-Selectin | -0.0115 ± 0.0078 | -0.005 ± 0.016 | -0.004 ± 0.0085 | 0.0105 ± 0.022 | 0.0215 ± 0.019 | 0.0275 ± 0.0078 | -0.013 ± 0.021 | -0.025 ± 0.0071 | -0.0345 ± 0.005 | -0.009 ± 0.0099 | -0.007 ± 0.014 | -0.002 | -0.014 ± 0.016 | 0.0155 ± 0.015 | -0.0065 ± 0.0035 | -0.0075 ± 0.026 | 0.0095 ± 0.042 | -0.0495 ± 0.013 | -0.0295 ± 0.022 | -0.044 ± 0.024
LPS:CD69 | 0.03 ± 0.0028 | 0 ± 0.028 | -0.0315 ± 0.04 | 0.0305 ± 0.04 | -0.007 ± 0.027 | -0.023 ± 0.068 | -0.072 ± 0.02 | -0.0565 ± 0.057 | -0.028 ± 0.09 | 0.02 ± 0.11 | 0.0405 ± 0.12 | 0.0255 ± 0.086 | -0.0585 ± 0.05 | -0.01 ± 0.025 | -0.006 ± 0.0057 | -0.004 ± 0.025 | -0.015 ± 0.061 | 0.014 ± 0.0099 | -0.006 ± 0.045 | -0.0125 ± 0.028
LPS:CD106/VCAM-1 | -0.0285 ± 0.016 | -0.016 ± 0.0071 | -0.0195 ± 0.011 | 0.013 ± 0.034 | -0.007 ± 0.033 | 0.0165 ± 0.049 | -0.106 ± 0.021 | -0.141 ± 0.018 | -0.244 ± 0.069 | -0.019 ± 0.02 | -0.005 ± 0.025 | -0.0155 ± 0.019 | -0.0095 ± 0.043 | 0.015 ± 0.023 | 0.009 ± 0.031 | -0.0235 ± 0.052 | -0.01 ± 0.035 | -0.008 ± 0.0057 | -0.011 ± 0.023 | -0.0275 ± 0.018
LPS:CD141/Thrombomodulin | -0.013 ± 0.031 | -0.0025 ± 0.0092 | -0.036 ± 0.028 | 0.067 ± 0.0085 | 0.057 ± 0.055 | 0.051 ± 0.072 | -0.0835 ± 0.093 | -0.091 ± 0.14 | -0.026 ± 0.12 | -0.028 ± 0.023 | -0.0285 ± 0.052 | -0.0195 ± 0.053 | 0.018 ± 0.016 | 0.028 ± 0.011 | -0.0075 ± 0.026 | 0.006 ± 0.03 | -0.0065 ± 0.023 | -0.008 ± 0.027 | -0.032 ± 0.0042 | 0.028 ± 0.034
LPS:CD142/Tissue Factor | 0.0885 ± 0.064 | 0.0845 ± 0.028 | 0.075 ± 0.045 | 0.0685 ± 0.042 | 0.1 ± 0.057 | 0.0485 ± 0.093 | 0.0165 ± 0.064 | -0.023 ± 0.12 | -0.036 ± 0.12 | -0.0085 ± 0.066 | -0.012 ± 0.054 | 0.016 ± 0.051 | -0.023 ± 0.014 | 0.0145 ± 0.049 | 0.006 ± 0.0042 | 0.0615 ± 0.063 | 0.0555 ± 0.061 | 0.011 ± 0.1 | 0.0075 ± 0.033 | -0.0095 ± 0.054
LPS:CXCL8/IL-8 | 0.023 ± 0.031 | 0.0895 ± 0.016 | 0.131 ± 0.017 | 0.0585 ± 0.025 | 0.108 ± 0.07 | 0.21 ± 0.04 | -0.052 ± 0.0099 | -0.047 ± 0.037 | -0.007 ± 0.069 | -0.0075 ± 0.05 | 0.0075 ± 0.049 | 0.0545 ± 0.005 | -0.04 ± 0.035 | 0.015 ± 0.0071 | -0.038 ± 0.0014 | -0.0185 ± 0.033 | 0.031 ± 0.09 | -0.0075 ± 0.011 | -0.0305 ± 0.0064 | -0.0125 ± 0.021
LPS:IL-1alpha | 0.0325 ± 0.04 | 0.0475 ± 0.015 | 0.019 ± 0.062 | 0.026 ± 0.025 | 0.044 ± 0.016 | 0.011 ± 0.027 | -0.0355 ± 0.015 | -0.0495 ± 0.023 | -0.095 ± 0.02 | -0.023 ± 0.013 | -0.0195 ± 0.04 | 0.0005 ± 0.09 | -0.103 ± 0.019 | 0.0125 ± 0.033 | -0.0015 ± 0.026 | -0.002 ± 0.069 | 0.056 ± 0.095 | -0.0355 ± 0.049 | -0.064 ± 0.016 | -0.004 ± 0.017
LPS:M-CSF | -0.02 ± 0.024 | -0.009 ± 0.016 | -0.0045 ± 0.005 | -0.0095 ± 0.059 | 0.026 ± 0.028 | -0.0085 ± 0.032 | -0.071 ± 0.082 | -0.155 ± 0.13 | -0.203 ± 0.13 | -0.014 ± 0.014 | -0.024 | -0.008 ± 0.011 | 0.049 ± 0.0028 | -0.008 ± 0.027 | -0.0185 ± 0.015 | -0.0405 ± 0.013 | -0.02 ± 0.024 | -0.0285 ± 0.019 | -0.025 ± 0.017 | -0.013 ± 0.048
LPS:SRB | -0.009 ± 0.0028 | -0.0075 ± 0.00071 | -0.009 ± 0.0014 | -0.0175 ± 0.0021 | -0.012 | -0.0145 ± 0.0064 | -0.006 ± 0.0071 | -0.024 ± 0.0085 | -0.044 ± 0.0057 | -0.0085 ± 0.00071 | -0.008 ± 0.0071 | -0.0085 ± 0.0035 | 0.005 ± 0.0057 | -0.0105 ± 0.005 | -0.0165 ± 0.0021 | -0.002 ± 0.0085 | 0.007 ± 0.02 | 0.0005 ± 0.0092 | -0.003 ± 0.0014 | -0.0035 ± 0.023
LPS:sPGE2 | 0.093 ± 0.061 | 0.0575 ± 0.039 | 0.0765 ± 0.018 | 0 ± 0.028 | -0.0545 ± 0.03 | -0.001 ± 0.011 | -0.0855 ± 0.016 | -0.09 ± 0.021 | -0.106 ± 0.016 | -0.0115 ± 0.026 | 0.01 ± 0.047 | -0.012 ± 0.017 | -0.0665 ± 0.044 | 0.018 ± 0.024 | 0.0045 ± 0.016 | 0.0175 ± 0.0064 | 0.005 ± 0.024 | -0.0255 ± 0.012 | 0.022 ± 0.0057 | -0.0015 ± 0.016
LPS:sTNF-alpha | -0.068 ± 0.021 | -0.0375 ± 0.043 | -0.0225 ± 0.033 | 0.011 ± 0.0057 | -0.0005 ± 0.0035 | -0.0005 ± 0.0092 | -0.0305 ± 0.042 | 0.0195 ± 0.023 | -0.0025 ± 0.035 | -0.017 ± 0.0071 | -0.0055 ± 0.005 | -0.0115 ± 0.00071 | -0.0415 ± 0.00071 | 0.024 ± 0.011 | -0.0245 ± 0.012 | -0.0225 ± 0.013 | -0.0295 ± 0.005 | -0.123 ± 0.074 | -0.145 ± 0.041 | -0.146 ± 0.018
